Several values for one entry are separate records, joined by “and”; a condition that tells them apart may be missing. Equal values may be shown once.
Experiments:
[1] = test system: LNCaP human prostate cancer cells; experiment: Inhibition of LNCaP cell proliferation (MTT); assay type: cell-based; settings: 100 μg/ml, 48 h, 5×10^5 cells/ml
Description: (§1) Cells were seeded in 6 (1 ml/well), 24 (0.5 ml/well) or 96 (0.1 ml/well) well flat-bottom microplates and were maintained at 37° C. in a 5% CO2 atmosphere. Unless stated otherwise, 2.5×10^5 cells/ml were incubated with 0 μg/ml (control) and 100 μg/ml (treated) of 2 to 45 base sequences containing A, C, G and T for 48 h.
(§2) Cell proliferation was measured using dimethylthiazol-diphenyl-tetrazolium (MTT) reduction (Mosman et al. J. Immunol. Methods 65:55, 1983). MTT was measured at a wavelength of 570 nm using a multiplate spectrophotometer reader (ELX800, Bio-TEK Instruments Inc., Winooski, Vt.).
LNCaP prostate cancer cells are a TGF-beta 1 receptor negative, […], metastatic human solid tumor model. LNCaP cells (5×10^5 cells/ml) were incubated with 6 base GT sequences (Table 9).

[2] = test system: rhesus monkey PBMCs; experiment: Cytokine production by rhesus monkey PBMC (ELISA); assay type: cell-based; settings: PBMC of 4 healthy rhesus monkeys, 100 μg/ml, 48 h
Method in brief: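 Peripheral blood mononuclear cells taken from 4 healthy rhesus monkeys were cultured at 1×10^6 cells with 100 μg/ml of each test sequence for 48 h at 37° C. under 5% CO2. Cytokine levels in 100 μl of supernatant were quantified in pg/ml by commercial ELISA and reported as fold increase over untreated control cells.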

[3] = test system: PC-3 human prostate cancer cells; experiment: Inhibition of PC-3 cell proliferation (MTT); assay type: cell-based; settings: 100 μg/ml, 48 h, 5×10^5 cells/ml
Description: as §1, §2
PC-3 prostate cancer cells are a p53 mutated, androgen-independent human solid tumor model. PC-3 cells (5×10^5 cells/ml) were incubated with 3 and 6 base GT sequences (Table 8).

[4] = test system: human peripheral blood mononuclear cells; experiment: Cytokine production by human PBMC (ELISA); assay type: cell-based; settings: PBMC of 7 healthy humans, 100 μg/ml, 48 h
Method in brief: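 PBMC from 7 healthy donors, Ficoll-isolated; 1×10^6 cells incubated with 100 μg/ml oligonucleotide sequence for 48 h at 37 °C, 5% CO2. IL-1beta, IL-6, IL-10, IL-12 (p70 plus free p40) and TNF-alpha measured by ELISA in supernatant, expressed as fold increase over control cells.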

[5] = test system: chimpanzee PBMCs; experiment: Cytokine production by chimpanzee PBMC (ELISA); assay type: cell-based; settings: PBMC of 4 healthy chimpanzees, 100 μg/ml, 48 h
Method in brief: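 PBMCs from 4 healthy chimpanzees (1×10^6 cells) were incubated 48 h at 37 °C, 5% CO2 with 100 μg/ml of each 6-base sequence. Supernatant IL-10, IL-12 (p70 plus free p40) and TNF-alpha were measured by ELISA. Values are fold increase over untreated control cells.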

[6] = test system: A20 murine B leukemia cells; experiment: Inhibition of A20 cell proliferation (MTT); assay type: cell-based; settings: 100 μg/ml, 48 h
Description: as §1, §2
A20 murine leukemia B cells are a suspension tumor model. A20 murine leukemia B cells were incubated with 6 base GT sequences (Table 19).

[7] = test system: THP-1 human acute monocytic leukemia cells; experiment: Inhibition of THP-1 cell proliferation (MTT); assay type: cell-based; settings: 100 μg/ml, 48 h, 1.6×10^6 cells/ml
Description: as §1, §2
THP-1 acute monocytic leukemia cells are a p53 null human suspension tumor model. THP-1 cells (1.6×10^6 cells/ml) were incubated with 6 base GT sequences (Table 10).

[8] = test system: THP-1 human acute monocytic leukemia cells; experiment: Cytokine production by THP-1 cells (ELISA); assay type: cell-based; settings: THP-1, 1×10^6 cells, 100 μg/ml, 48 h; for ↑ IL-12 (fold increase treated vs control cells): p70 complex and free p40
Method in brief: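 1×10^6 cells exposed to 100 μg/ml of each oligonucleotide sequence for 48 h at 37° C in 5% CO2, unless stated otherwise. Cytokines quantified in culture supernatant by ELISA, IL-12 assay detecting both p70 and free p40; values are fold increase over untreated control cells.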

[9] = test system: HL-60 human promyelocytic leukemia cells; experiment: Inhibition of HL-60 cell proliferation (MTT); assay type: cell-based; settings: 100 μg/ml, 48 h
Description: as §1, §2
HL-60 promyelocytic leukemia cells are a p53 mutated human suspension tumor model. HL-60 cells were incubated with 6 base GT sequences (Table 6).

[10] = test system: MCF-7 human breast cancer cells; experiment: Inhibition of MCF-7 cell proliferation (MTT); assay type: cell-based; settings: 100 μg/ml, 48 h, 5×10^5 cells/ml
Description: as §1, §2
MCF-7 human breast cancer cells are a caspase 3 negative, estrogen-dependent human solid tumor model. MCF-7 cells (5×10^5 cells/ml) were incubated with 3 and 6 base GT sequences (Table 7).

[11] = test system: Jurkat human leukemia T cells; experiment: Inhibition of Jurkat human leukemia T cell proliferation (MTT reduction); assay type: cell-based; settings: for % INHIBITION of Jurkat human leukemia T cell proliferation: 100 μg/ml sequence, 48 h, 2.5×10^5 cells/ml; for proliferation, cell cycle arrest and apoptosis of Jurkat T cells (summary in words): M. phlei murA derived sequences
Method in brief: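 Jurkat cells at 2.5×10^5 cells/ml exposed to 100 μg/ml of 2–45-base A/C/G/T sequences (0 μg/ml control) for 48 h, 37° C, 5% CO2. Viability by MTT reduction read at 570 nm.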

[12] = test system: caspase 3; experiment: Caspase 3 activation, colorimetric (p-nitroanilide peptide cleavage); assay type: cell-based, human; settings: Jurkat, 72 h, 100 μg/ml
Description: (§3) To determine caspase activation, control and treated cells are washed, fixed, permeabilized and incubated with an FITC-conjugated antibody that recognizes the active form of the caspase (Pharmingen, San Diego, Calif.) using the conditions recommended by the manufacturer. Fluorescence associated with active caspase 3 is analyzed by flow cytometry on a FACSCALIBUR using the program CellQUEST (Becton Dickinson). Alternatively, caspase activation is determined colorimetrically using an assay based on the cleavage of a caspase-specific peptide conjugated to the color reporter molecule p-nitroanilide, which can be quantitated spectrophotometrically at a wavelength of 405 nm.
(§4) Jurkat T cell leukemia cells were incubated for 72 h with 33 base GT SEQ ID NO:66; 11 base GT SEQ ID NO:81 (bases 1-11 of GT SEQ ID NO:66), 11 base GT SEQ ID NO:82 (bases 12-22 of GT SEQ ID NO:66), 11 base GT SEQ ID NO:83 (bases 23-33 of GT SEQ ID NO:66) and 15 base ACG SEQ ID NO:67. Active caspase 3 (17-22 kDa) was determined using FITC conjugated antibody (Clone: C92-605) as in Example 28.
Caspase 3 activation also was determined colorimetrically as in Example 28.
Jurkat T cell leukemia cells were incubated for 72 h with 6 base GT SEQ ID NO:25. Caspase 3 activation was determined colorimetrically as in Example 28.

[13] = test system: Jurkat human leukemia T cells; experiment: Apoptosis by phosphatidylserine/annexin V-FITC flow cytometry; assay type: cell-based; settings: M. phlei murA derived sequences
Description: The redistribution of phosphatidylserine in the plasma membrane during apoptosis was measured by flow cytometry using FITC-conjugated annexin V (BD Pharmingen, San Diego, Calif.). NuMA release into the supernatant was determined using a commercial ELISA kit (Oncogen/Calbiochem, Cambridge, Mass.).
Jurkat human leukemia T cells were incubated with 50 μM of 3, 4, 5, 6 and 7 GT base sequences, a 5 base ACGT sequence, 6 base AG, GG, AGT and CGT sequences and a 7 base GG sequence. […]
Jurkat human leukemia T cells were incubated with GT-rich or AC-rich sequences derived from the murA gene of Mycobacterium phlei (GenBank: Accession Number X99776). Inhibition of proliferation was measured by the reduction of MTT as in Example 3, cell cycle arrest was detected by flow cytometry using propidium iodide as in Example 21 and apoptosis was evaluated by flow cytometry using annexin-V-FITC as in Example 23.

[14] = test system: caspase 3; experiment: Active caspase 3 by FITC-conjugated antibody flow cytometry; assay type: cell-based, human; settings: Jurkat, 72 h, 100 μg/ml, cytometric (FIG. 2A)
Description: as §3, §4

Row | Sequence | % INHIBITION of LNCaP human prostate cancer cell proliferation [1] [%] | IL-10 fold increase: mean +/− SD [2] | IL-12 fold increase: mean +/− SD [2] | TNF-alpha fold increase: mean +/− SD [2] | % INHIBITION of PC-3 human prostate cancer cell proliferation [3] [%] | IL-1 beta fold increase: mean +/− SD [4] | IL-6 fold increase: mean +/− SD [4] | IL-10 fold increase: mean +/− SD [4] | IL-12 fold increase: mean +/− SD [4] | IL-10 fold increase: mean +/− SD [5] | IL-12 fold increase: mean +/− SD [5] | TNF-alpha fold increase: mean +/− SD [5] | % INHIBITION of A20 murine B leukemia cell proliferation [6] [%] | % INHIBITION of THP-1 human acute monocytic leukemia cell proliferation [7] [%] | ↑ IL-6 (fold increase treated vs control cells) [8] [x] | ↑ IL-12 (fold increase treated vs control cells) [8] [x] | % INHIBITION of HL-60 human promyelocytic leukemia cell proliferation [9] [%] | % INHIBITION of MCF-7 human breast cancer cell proliferation [10] [%] | % INHIBITION of Jurkat human leukemia T cell proliferation [11] | caspase 3 activity greater than in control cells [12] [%] | also measured
1 | GGTGGG [SEQ ID NO:24] | 17 | 1.0 +/− 0.1 fold increase | 11.2 +/− 4.8 fold increase | 14.5 +/− 5.4 fold increase | 26 | 0.9 +/− 0.1 fold increase | 15.9 +/− 14.9 fold increase | 2.4 +/− 2.9 fold increase | 2.3 +/− 1.6 fold increase | 2.9 +/− 1.5 fold increase | 14.3 +/− 9.1 fold increase | 11.9 +/− 7.0 fold increase | 9 | 6 | 6.9 | 3.7 | 18 | 41 | 48% | – | –
2 | GTGTGTTTGGT (unmodified DNA) [SEQ ID NO:81] | – | – | – | – | – | – | – | – | – | – | – | – | – | – | – | – | – | – | 22% | 77 | % at cells in apoptosis [13]: 23%; processing of inactive pro-caspase 3 to active caspase 3 [14]: induced processing of inactive pro-caspase 3 to active caspase 3; proliferation, cell cycle arrest and apoptosis of Jurkat T cells (summary in words) [11]: inhibited proliferation of, induced cell cycle arrest in and induced apoptosis of Jurkat T cells
3 | TGTGTG [SEQ ID NO:9] | −9 | 1.1 +/− 0.2 fold increase | 10.6 +/− 4.2 fold increase | 14.3 +/− 6.3 fold increase | 16 | 1.2 +/− 0.4 fold increase | 8.3 +/− 12.8 fold increase | 1.0 +/− 0.1 fold increase | 2.7 +/− 2.6 fold increase | 2.3 +/− 1.3 fold increase | 13.5 +/− 8.9 fold increase | 11.3 +/− 6.9 fold increase | 22 | 0 | 4.0 | 1.8 | 7 | 6 | 37% and 36% | – | –
4 | TTGTTTTTTTTG (unmodified DNA) [SEQ ID NO:83] | – | – | – | – | – | – | – | – | – | – | – | – | – | – | – | – | – | – | 21% | 60 | % at cells in apoptosis [13]: 16%; processing of inactive pro-caspase 3 to active caspase 3 [14]: induced processing of inactive pro-caspase 3 to active caspase 3; proliferation, cell cycle arrest and apoptosis of Jurkat T cells (summary in words) [11]: inhibited proliferation of, induced cell cycle arrest in and induced apoptosis of Jurkat T cells
5 | TTTGTT [SEQ ID NO:23] | 14 | 1.0 +/− 0.1 fold increase | 6.7 +/− 3.6 fold increase | 4.4 +/− 3.8 fold increase | 14 | 1.0 +/− 0.1 fold increase | 11.8 +/− 9.0 fold increase | 1.0 +/− 0.1 fold increase | 1.1 +/− 0.3 fold increase | 1.5 +/− 0.6 fold increase | 12.9 +/− 8.2 fold increase | 9.0 +/− 5.5 fold increase | 5 | 8 | 4.9 | 3.5 | 13 | 7 | 31% | – | –
